In one data set the target is Minerva virus protease (Norovirus GII.4 (Minerva virus), UniProt P54634). As to the kind of experiment: FRET enzyme kinetic assay, NoV GII.4 Minerva virus protease. It is filed as biochemical. The following applies: Minerva virus (GII.4) protease; inhibitor incubated with enzyme 90 minutes at 37° C. before FRET substrate. How it is done:
The ability of these compounds to inhibit the NoV, specifically Minerva virus protease catalytic Cys139 covalently (IC50 and Ki) was determined with an enzyme kinetic assay. NoV strains, specifically GII.4 such as the Minerva virus are responsible for causing the majority (˜80%) of infections in humans. The activity of the inhibitors was evaluated by monitoring the cleavage of a FRET substrate every one minute for 20 minutes (excitation/emission: 488/520 nm) using a SpectraMax M5 microplate reader (Molecular Devices, Sunnyvale CA). Serial dilutions of each inhibitor were incubated with enzyme for 90 minutes at 37° C. before addition of the FRET substrate to ensure complete inactivation. Commercially available protease inhibitors chymostatin and rupintrivir were used as controls.

Data set [1] is described as follows: Cellular toxicity assay in CEM cells. Particulars: human, read-out: Cytotoxicity, CC50 (μM) CEM. It is filed as cell-based. On the procedure:
(§1) The toxicity of the compounds was assessed in Vero, human PBM, CEM (human lymphoblastoid), MT-2, and HepG2 cells, as described previously (see Schinazi R. F., Sommadossi J.-P., Saalmann V., Cannon D. L., Xie M.-Y., Hart G. C., Smith G. A. & Hahn E. F. Antimicrob. Agents Chemother. 1990, 34, 1061-67). Cycloheximide was included as positive cytotoxic control, and untreated cells exposed to solvent were included as negative controls. The cytotoxicity CC50 was obtained from the concentration-response curve using the median effective method described previously (see Chou T.-C. & Talalay P. Adv. Enzyme Regul. 1984, 22, 27-55; Belen'kii M. S. & Schinazi R. F. Antiviral Res. 1994, 25, 1-11).

A short description of data set [2]: Cellular toxicity assay in PBM cells. Type of data set: cell-based. Particulars: human, read-out: Cytotoxicity, CC50 (μM) PBM. On the procedure:
as §1

Data set [3] can be described thus: Cellular toxicity assay in Vero cells. The following applies: African green monkey, read-out: Cytotoxicity, CC50 (μM) VERO. It is filed as cell-based. On the procedure:
as §1

The target in data set [4] is Norovirus GI.1 (Norwalk virus) protease (Norovirus (strain Human/NoV/United States/Norwalk/1968/GI) (Hu/NV/NV/1968/US), UniProt Q83883). The data set can be described thus: FRET based enzyme assay, Norovirus GI.1 protease. Type of data set: biochemical. The following applies: 37° C. On the procedure:
Norovirus GI.1 (Norwalk virus) protease were tested for enzymatic activity using a fluorescence resonance energy transfer (FRET) based enzyme assay. Norovirus GI.1 represents 5 to 10% of the clinical isolates. The FRET kinetic enzyme assays were performed as follows. The purified viral protease was diluted in reaction buffer (50 mM HEPES, pH 8.0, 120 mM NaCl, 0.4 mM EDTA, 20% glycerol, and 4 mM DTT) to a final concentration of 128 nM. Each reaction was initiated by addition of FRET substrate [(HiLyte Fluor 488) -[…]-(QXL520)]. To determine kinetic parameters, the FRET substrate was serially diluted to final concentrations of 100 μM to 49 nM and added to the reaction. The final reaction volume was 100 μL. The fluorescence emitted by substrate cleavage was monitored by a microplate reader (SpectraMax M5, Molecular Devices, Sunnyvale, CA, USA) at a 488 nm excitation wavelength with an emission wavelength of 520 nm. Readings were taken every minute for 20 minutes, and the reactions were performed at 37° C. In order to convert RFU into μM, a standard curve was created by measuring fluorescence of free HiLyte Fluor 488, which was serially diluted from 250 nM to 3.9 nM. All data were plotted and analyzed with GraphPad Prism v. 6.07.

The nature of data set [5]: Cellular toxicity assay in Huh7 cells. Type of data set: cell-based. Particulars: human, read-out: Cytotoxicity, CC50 (μM) Huh7. On the procedure: [The procedure below names another cell line; the source lists this cell line under the same test.] as §1

Structures are written as SMILES.

One may read the IC50 as the concentration needed to halve the response being measured. Read a high IC50 as lower potency. The CC50 is the concentration giving 50% cytotoxicity. The Ki is a measure of affinity in units of concentration, obtained from inhibition or displacement. Read a low Ki as tighter binding.

Norovirus GI.1 (Norwalk virus) protease, sequence (Q83883 1101-1281): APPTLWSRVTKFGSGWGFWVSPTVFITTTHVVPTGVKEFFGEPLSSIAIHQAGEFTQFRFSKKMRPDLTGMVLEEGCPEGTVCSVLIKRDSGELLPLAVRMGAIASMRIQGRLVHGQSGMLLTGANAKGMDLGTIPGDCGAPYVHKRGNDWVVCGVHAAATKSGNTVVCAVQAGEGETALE
Minerva virus protease, sequence (P54634 whole entry, looked up): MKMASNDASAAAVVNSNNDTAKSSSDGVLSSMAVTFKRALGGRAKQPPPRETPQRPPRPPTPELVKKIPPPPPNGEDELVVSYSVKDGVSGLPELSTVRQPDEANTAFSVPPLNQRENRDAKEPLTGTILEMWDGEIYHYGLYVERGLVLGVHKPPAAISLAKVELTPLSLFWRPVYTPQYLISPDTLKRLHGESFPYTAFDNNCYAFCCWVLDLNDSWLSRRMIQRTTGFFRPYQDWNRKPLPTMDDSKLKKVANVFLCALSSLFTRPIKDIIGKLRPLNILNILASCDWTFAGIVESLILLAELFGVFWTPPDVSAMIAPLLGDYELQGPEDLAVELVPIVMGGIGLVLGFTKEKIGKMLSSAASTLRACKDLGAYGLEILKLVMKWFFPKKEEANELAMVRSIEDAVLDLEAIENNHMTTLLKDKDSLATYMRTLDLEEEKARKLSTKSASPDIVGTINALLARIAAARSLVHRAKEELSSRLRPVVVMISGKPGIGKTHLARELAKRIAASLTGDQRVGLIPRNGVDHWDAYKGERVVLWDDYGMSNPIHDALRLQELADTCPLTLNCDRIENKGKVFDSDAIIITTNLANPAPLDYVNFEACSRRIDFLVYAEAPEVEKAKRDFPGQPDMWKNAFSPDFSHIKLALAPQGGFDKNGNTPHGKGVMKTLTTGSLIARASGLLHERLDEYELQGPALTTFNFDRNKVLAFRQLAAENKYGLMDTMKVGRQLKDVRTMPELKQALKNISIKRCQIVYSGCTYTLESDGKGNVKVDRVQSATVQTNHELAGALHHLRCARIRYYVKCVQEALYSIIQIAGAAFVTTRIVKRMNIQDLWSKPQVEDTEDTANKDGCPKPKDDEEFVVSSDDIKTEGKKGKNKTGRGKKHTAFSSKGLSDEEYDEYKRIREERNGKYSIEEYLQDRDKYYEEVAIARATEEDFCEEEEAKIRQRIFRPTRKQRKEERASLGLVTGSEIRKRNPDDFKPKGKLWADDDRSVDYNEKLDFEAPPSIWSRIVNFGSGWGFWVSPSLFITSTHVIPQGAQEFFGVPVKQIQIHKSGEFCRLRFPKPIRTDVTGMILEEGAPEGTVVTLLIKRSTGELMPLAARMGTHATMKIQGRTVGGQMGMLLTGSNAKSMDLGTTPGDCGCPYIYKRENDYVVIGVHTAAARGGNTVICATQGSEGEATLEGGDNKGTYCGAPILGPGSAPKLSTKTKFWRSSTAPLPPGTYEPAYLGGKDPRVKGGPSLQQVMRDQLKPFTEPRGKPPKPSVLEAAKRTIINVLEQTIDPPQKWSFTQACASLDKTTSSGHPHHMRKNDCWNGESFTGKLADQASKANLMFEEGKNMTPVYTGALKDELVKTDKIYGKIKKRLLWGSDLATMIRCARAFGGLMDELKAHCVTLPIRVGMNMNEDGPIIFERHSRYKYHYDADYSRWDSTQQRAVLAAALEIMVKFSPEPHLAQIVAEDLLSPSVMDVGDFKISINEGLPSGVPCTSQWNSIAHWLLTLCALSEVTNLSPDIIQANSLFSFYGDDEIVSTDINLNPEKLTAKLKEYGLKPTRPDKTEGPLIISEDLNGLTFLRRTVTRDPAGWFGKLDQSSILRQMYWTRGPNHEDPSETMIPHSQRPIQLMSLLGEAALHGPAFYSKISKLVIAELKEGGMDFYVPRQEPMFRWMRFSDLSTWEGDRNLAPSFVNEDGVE

In the case of `CC(C)C[C@H](NC(=O)[C@H](Cc1cccc2ccccc12)NC(=O)OCc1ccccc1)C(=O)N[C@H](/C=C(\C#N)C(N)=O)C[C@@H]1CCCNC1=O` [Compound 36, Benzyl ((S)-1-(((S)-1-(((S,E)-5-amino-4-cyano-5-oxo-1-((S)-2-oxopiperidin-3-yl)pent-3-en-2-yl)amino)-4-methyl-1-oxopentan-2-yl)amino)-3-(naphthalen-1-yl)-1-oxopropan-2-yl)carbamate], the IC50 against Minerva virus protease was 1.17 ± 0.333 µM; in data set [4] it was 0.593 ± 0.124 µM. Further, the CC50 is 9 µM in data set [1], 45 µM in data set [2], more than 100 µM in data set [3] and 8 µM in data set [5]. In addition, the Ki in data set [4] was determined as 1.7 ± 0.332 µM.

The values are drawn from patent publication US11859014B2, “Peptidomimetics for the treatment of Norovirus infection” (EMORY UNIVERSITY, priority 2016, dated 2024).
